Data: US12459957B2, “Therapeutic compounds and methods” (GENENTECH, INC., priority 2021, dated 2025)

What was measured:
[1] = system: neutrophils (PMA-stimulated NETosis); experiment: Quantification of NETosis using SYTOX Green; format: cell-based, human; details: for 5 uM (% NETosis): compound at 5 uM, NET-forming cells as percentage of total cells, vehicle 79.66, untreated 14.54
Excerpt: Semi-automated analysis of both phase and fluorescence images of SYTOX Green-stained neutrophils used a MATLAB algorithm. Total cells were counted by scoring phase standard deviation and radial symmetry. NETosis was classified in cells by measuring the DNA area in the fluorescence image and comparing with a select internal training set for each experiment. Unstimulated cells and PMA-stimulated, pyocyanin-inhibited cells served as negative controls. PMA-stimulated cells served as a positive control. NET-forming cells are presented as a percentage of total cells.

[2] = system: neutrophils (PMA-stimulated ROS); experiment: ROS detection assay (ROS-Glo, H2O2); format: cell-based; details: Neutrophil; human neutrophils, 30 min preincubation, 50 nM PMA for 30 min
Procedure: ROS were measured in neutrophils using the ROS-Glo bioluminescent assay (Promega) for the direct detection of H2O2. Neutrophils were isolated from fresh human blood using a biphasic Histopaque gradient as described here. Cells (100 uL per well) were plated in 96-well plates at a density of 200,000 cells/mL in high glucose DMEM medium. Cells were preincubated with either DMSO vehicle or compounds (10-point dilution curve starting at 2 uM with 3-fold serial dilution) for 30 min, and then stimulated with 50 nM PMA for 30 min. Luminescence, after the addition of H2O2 substrate solution for 20 min, and then ROS-Glo detection solution for 20 min, was recorded on a luminescence plate reader. The fifty percent inhibitory concentration (IC50) was determined with GraphPad Prism by plotting the assay output (RLU) versus the logarithm of the compound concentration using a non-linear sigmoid with variable slope algorithm with the default curve-fitting parameters in the Prism software.

Structure (SMILES)	5 uM (% NETosis) [1]	IC50 [2]	IC50 ([1]; Homo sapiens, Neutrophil, NETosis, SYTOX Green-stained neutrophils, PMA-stimulated)
CC(=O)Nc1ccc2c(c1)OCc1cc(-c3ccccc3F)nn1C2 [Example 55]	36.33%	46 nM	
c1ccc(-c2cc3n(n2)Cc2ccc(Nc4ccn[nH]4)cc2OC3)cc1 [Example 36]	46.06%	1400 nM	
CC(=O)Nc1ccc2c(c1)OCc1cc(-c3ccncc3C)nn1C2 [Example 68]	43.49%	233 nM	
CC(=O)Nc1ccc2c(c1)OCc1cc(-c3cnn(C(F)(F)F)c3)nn1C2 [Example 125, N-(2-(1-(trifluoromethyl)-1H-pyrazol-4-yl)-4H,10H-benzo[f]pyrazolo[5,1-c][1,4]oxazepin-7-yl)acetamide]		56 nM	
Cc1cc(Nc2ccc3c(c2)OCc2cc(-c4ccccc4)nn2C3)[nH]n1 [Example 33]	69.42%	> 20000 nM	
CC(=O)Nc1ccc2c(c1)OCc1cc(-c3cnn(C4CCCCO4)c3)nn1C2 (centres unmarked) [Example 115]		7750 nM	
CC(=O)Nc1ccc2c(c1)OCc1cc(-c3cnn(C(F)F)c3)nn1C2 [Example 67, N-(2-(1-(difluoromethyl)-1H-pyrazol-4-yl)-4H,10H-benzo[f]pyrazolo[5,1-c][1,4]oxazepin-7-yl)acetamide]	39.88%	192 nM	
CC(=O)Nc1ccc2c(c1)OCc1cc(-c3c[nH]nc3C(C)C)nn1C2 [Example 111]		2100 nM	
CC(=O)Nc1ccc2c(c1)OCc1cc(-c3ccncc3F)nn1C2 [Example 129]		903 nM	
CC(=O)Nc1ccc2c(c1)OCc1cc(-c3ccnc(C)c3)nn1C2 [Example 126]		529 nM	
CCn1cc(-c2cc3n(n2)Cc2ccc(NC(C)=O)cc2OC3)cn1 [Example 114]		405 nM	
CC(=O)Nc1ccc2c(c1)OCc1cc(-c3cncs3)nn1C2 [Example 54]	37.45%	> 20000 nM	
CC(=O)Nc1ccc2c(c1)OCc1cc(-c3cn(C)nc3C(F)(F)F)nn1C2 [Example 110]		1580 nM	
CC(=O)Nc1ccc2c(c1)OCc1cc(-c3ccncc3)nn1C2 [Example 124]		410 nM	
CC(=O)Nc1ccc2c(c1)OCc1cc(-c3cc(C)nn3C)nn1C2 [Example 58]	53.96%	2440 nM	
N#CCNc1ccc2c(c1)OCc1cc(-c3ccccc3)nn1C2 [Example 39]	52.08%	510 nM	
CC(=O)Nc1ccc2c(c1)OCc1cc(-c3cncnc3)nn1C2 [Example 128]		3100 nM	
CC(=O)Nc1ccc2c(c1)OCc1cc(-c3ccccc3)nn1C2 [Example 1, N-(2-Phenyl-4H,10H-benzo[f]pyrazolo[5,1-c][1,4]oxazepin-7-yl)acetamide]	37.78%	93 nM	190 ± 30 nM
CC(=O)Nc1ccc2c(c1)OCc1cc(-c3cnn(CF)c3)nn1C2 [Example 117]		204 nM	
CC(=O)Nc1ccc2c(c1)OCc1cc(-c3cnn4c3CCC4)nn1C2 [Example 122]		1200 nM	
CC(=O)Nc1ccc2c(c1)OCc1cc(-c3c[nH]nc3C3CC3)nn1C2 [Example 118]		> 20000 nM	
c1ccc(-c2cc3n(n2)Cc2ccc(Nc4cn[nH]c4)cc2OC3)cc1 [Example 19]	62.75%	> 20000 nM	
CC(=O)Nc1ccc2c(c1)OCc1cc(-c3cnn(C(C)C)c3)nn1C2 [Example 108]		285 nM	
CC(=O)Nc1ccc2c(c1)OCc1cc(-c3cnn(C)c3)nn1C2 [Example 112]		3050 nM	
CC(=O)Nc1ccc2c(c1)OCc1cc(-c3cnn(C4COC4)c3)nn1C2 [Example 119]		714 nM	
CC(=O)Nc1ccc2c(c1)OCc1cc(-c3ccc(F)cc3CO)nn1C2 [Example 46, N-(2-(4-fluoro-2-(hydroxymethyl)phenyl)-4H,10H-benzo[f]pyrazolo[5,1-c][1,4]oxazepin-7-yl)acetamide]	51.25%		

Structure (SMILES)	5 uM (% NETosis) [1]	IC50 [2]	IC50 ([1]; Homo sapiens, Neutrophil, NETosis, SYTOX Green-stained neutrophils, PMA-stimulated)
CC(=O)Nc1ccc2c(c1)OCc1cc(-c3cnn(C4CC4)c3)nn1C2 [Example 109]		480 nM	
CNC(=O)c1cccc(-c2cc3n(n2)Cc2ccc(NC(C)=O)cc2OC3)c1 [Example 101]	85.18%		
CC(=O)Nc1ccc2c(c1)OCc1cc(-c3ccccc3C3CC3)nn1C2 [Example 76]	63.32%		
CSc1ccccc1-c1cc2n(n1)Cc1ccc(NC(C)=O)cc1OC2 [Example 43]	49.48%		
c1ccc(-c2cc3n(n2)Cc2ccc(NC4CCC4)cc2OC3)cc1 [Example 23]	86.22%		
CC(=O)Nc1ccc2c(c1)OCc1cc(-c3cc[nH]n3)nn1C2 [Example 57]	87.44%		
CC(=O)Nc1ccc2c(c1)OCc1cc(-c3cn(C)nc3C)nn1C2 [Example 113]		1460 nM	
CC(=O)Nc1ccc2c(c1)OCc1cc(-c3cncn3C)nn1C2 [Example 53]	57.77%		
Cn1cc(Nc2ccc3c(c2)OCc2cc(-c4ccccc4)nn2C3)c(Cl)n1 [Example 31]	85.26%		
COc1cnccc1-c1cc2n(n1)Cc1ccc(NC(C)=O)cc1OC2 [Example 61]	78.57%		
CC(=O)Nc1ccc2c(c1)OCc1cc(-c3ccc4c(c3)NC(=O)C4)nn1C2 [Example 84]	42.93%		
Oc1cc(Nc2ccc3c(c2)OCc2cc(-c4ccccc4)nn2C3)[nH]n1 [Example 22]	79.55%		
CC(=O)Nc1ccc2c(c1)OCc1cc(-c3cccnc3C3CC3)nn1C2 [Example 65]	83.56%		
CC(=O)Nc1ccc2c(c1)OCc1cc(-c3cccc(C(=O)N(C)C)c3)nn1C2 [Example 100]	85.05%		
CC(=O)Nc1ccc2c(c1)OCc1cc(-c3cccc4c3CN(C)C4)nn1C2 [Example 89]	84.44%		
CC(=O)Nc1ccc2c(c1)OCc1cc(-c3cnccc3C#N)nn1C2 [Example 72]	80.10%		
CC(=O)Nc1ccc2c(c1)OCc1cc(-c3cnco3)nn1C2 [Example 52]	66.03%		
CCc1n[nH]c(Nc2ccc3c(c2)OCc2cc(-c4ccccc4)nn2C3)c1Cl [Example 24]	81.55%		
CC(=O)Nc1ccc2c(c1)OCc1cc(-c3cnn(C)c3C)nn1C2 [Example 121]		836 nM	
CNS(=O)(=O)c1ccccc1-c1cc2n(n1)Cc1ccc(NC(C)=O)cc1OC2 [Example 97]	81.93%		
c1ccc(-c2cc3n(n2)Cc2ccc(-c4cn[nH]c4)cc2OC3)cc1 [Example 17]	76.49%		
CNC(=O)c1ccc(F)c(-c2cc3n(n2)Cc2ccc(NC(C)=O)cc2OC3)c1 [Example 99]	84.59%		
CC(=O)Nc1ccc2c(c1)OCc1cc(-c3cnn(CC(C)C)c3)nn1C2 [Example 120]		346 nM	
CC(=O)Nc1ccc2c(c1)OCc1cc(-c3ccc4[nH]c(=O)oc4c3)nn1C2 [Example 87]	78.92%		
CC(=O)Nc1ccc2c(c1)OCc1cc(-c3cccnc3)nn1C2 [Example 127]		1360 nM	
